Assay results reported in US6673839B1, “Pharmaceutical compositions with antitumour activity” (Universita' Degli Studi di Catania, priority 1998, dated 2004).

How the values were obtained:
Assay type in all cases: cell-based, human
[1] = test system: Cells from Nasopharynx Carcinoma Explant; assay: In vitro short-term chemosensitivity assay (MTT); conditions: Table 1, 24 h
Description: (§1) The effects of L-aC on cells from 4 primitive epidermoid carcinomas of the larynx and 1 primitive undifferentiated carcinoma of the nasopharynx were tested.
(§2) Tissue fragments from the tumour mass were mechanically dissociated in Hank's solutions adding an antibiotic and an antifungal to obtain a cell monosuspension free of agglomerates. The resulting suspension was centrifuged at 1200 rpm for 5 minutes and the pellet was resuspended in MEM culture medium supplemented with 10% of patient serum, to obtain a concentration of 10^5 cells/ml. Subsequently, 180 μl of the resulting suspension were dispensed in microplate wells and incubated under 5% CO2 atmosphere at 37° C. for 3 days. After that, the antitumor medicaments were added in the amount of 20 μl for each well, at a concentration of 0.1×, 1× and 10× the maximum serum concentrations that can usually be reached in clinical practice. 24 h after the beginning of the exposure to the antitumour medicament, 100 μl of MTT were added, and after 4 h, a further 150 μl of dimethylsulfoxide were added.
(§3) The optical density was evaluated by a Uniscan microspectrophotometer with a […] wavelength filter. Cytotoxicity was evaluated as percentage of the optical density of the treated sample compared with the optical density of the control.
(§4) Bleomycin (BLEC), […] (CDDP), 5-fluoruracil (5-FU), vincristine (VCR), epidoxorubicin (Epi-Dx) and methotrexate (MTX) were tested for comparison purposes.
(§5) L-aC was tested at the following concentrations: 0.2-2-20 mg/ml.
(§6) In vitro short-term chemosensitivity assay (according to Hill and coll.)
(§7) (Cell Vitality Percentage After Exposure to the Antitumoral)—Raw Data
(Cells from Nasopharynx Carcinoma Explant)

[2] = test system: Cells from Larynx Carcinoma Explant; assay: In vitro short-term chemosensitivity assay (MTT)
Description: as §1, §2, §3, §4, §5, §6, §7
(Cells from Larynx Carcinoma Explant)

[3] = test system: cells from 4 primitive epidermoid carcinomas of the larynx and 1 primitive undifferentiated carcinoma of the nasopharynx; assay: In vitro short-term chemosensitivity assay (MTT), all five explants; conditions: five explants
Description: as §1, §2, §3, §4, §5

[4] = 0.1x maximum clinical serum concentration (L-aC tested at 0.2-2-20 mg/ml)
[5] = 1x maximum clinical serum concentration
[6] = 10x maximum clinical serum concentration

Compound: O=c1[nH]cc(F)c(=O)[nH]1 [5-FU, 5-fluoruracil]
- Cell Vitality Percentage After Exposure [1, 4]: 43%
- Cell Vitality Percentage After Exposure [1, 5]: 12%
- Cell Vitality Percentage After Exposure [1, 6]: 5.7%
- Cell Vitality Percentage After Exposure ([2]; Table 2 explant, 0.1x): 53%
- Cell Vitality Percentage After Exposure ([2]; Table 2 explant, 1x): 38%
- Cell Vitality Percentage After Exposure ([2]; Table 2 explant, 10x): 13%
- Cell Vitality Percentage After Exposure ([2]; Table 3 explant, 0.1x): 52%
- Cell Vitality Percentage After Exposure ([2]; Table 3 explant, 1x): 45%
- Cell Vitality Percentage After Exposure ([2]; Table 3 explant, 10x): 23%
- Cell Vitality Percentage After Exposure ([2]; Table 4 explant, 0.1x): 40%
- Cell Vitality Percentage After Exposure ([2]; Table 4 explant, 1x): 14%
- Cell Vitality Percentage After Exposure ([2]; Table 4 explant, 10x): 14%
- Cell Vitality Percentage After Exposure ([2]; Table 5 explant, 0.1x): 55%
- Cell Vitality Percentage After Exposure ([2]; Table 5 explant, 1x): 13%
- Cell Vitality Percentage After Exposure ([2]; Table 5 explant, 10x): 8.2%
- most active medicaments (cases out of 5) [3]: 1/5

Compound: N.N.O=C([O-])C1(C(=O)[O-])CCC1.[Pt+2] [CBP, carboplatin]
- Cell Vitality Percentage After Exposure [1, 4]: 7.1%
- Cell Vitality Percentage After Exposure [1, 5]: 7%
- Cell Vitality Percentage After Exposure [1, 6]: 6.5%
- Cell Vitality Percentage After Exposure ([2]; Table 2 explant, 0.1x): 78%
- Cell Vitality Percentage After Exposure ([2]; Table 2 explant, 1x): 58%
- Cell Vitality Percentage After Exposure ([2]; Table 2 explant, 10x): 34%
- Cell Vitality Percentage After Exposure ([2]; Table 3 explant, 0.1x): 88%
- Cell Vitality Percentage After Exposure ([2]; Table 3 explant, 1x): 50%
- Cell Vitality Percentage After Exposure ([2]; Table 3 explant, 10x): 21%
- Cell Vitality Percentage After Exposure ([2]; Table 5 explant, 0.1x): 72%
- Cell Vitality Percentage After Exposure ([2]; Table 5 explant, 1x): 53%
- Cell Vitality Percentage After Exposure ([2]; Table 5 explant, 10x): 45%

Compound: COc1cccc2c1C(=O)c1c(O)c3c(c(O)c1C2=O)C[C@@](O)(C(=O)CO)C[C@@H]3O[C@H]1C[C@H](N)[C@@H](O)[C@H](C)O1 [Epi-Dx, epidoxorubicin]
- Cell Vitality Percentage After Exposure [1, 4]: 14%
- Cell Vitality Percentage After Exposure [1, 5]: 7.8%
- Cell Vitality Percentage After Exposure [1, 6]: 4.8%
- Cell Vitality Percentage After Exposure ([2]; Table 2 explant, 0.1x): 59%
- Cell Vitality Percentage After Exposure ([2]; Table 2 explant, 1x): 21%
- Cell Vitality Percentage After Exposure ([2]; Table 2 explant, 10x): 7%
- Cell Vitality Percentage After Exposure ([2]; Table 3 explant, 0.1x): 57%
- Cell Vitality Percentage After Exposure ([2]; Table 3 explant, 1x): 32%
- Cell Vitality Percentage After Exposure ([2]; Table 3 explant, 10x): 16%
- Cell Vitality Percentage After Exposure ([2]; Table 4 explant, 0.1x): 16%
- Cell Vitality Percentage After Exposure ([2]; Table 4 explant, 1x): 8%
- Cell Vitality Percentage After Exposure ([2]; Table 4 explant, 10x): 8%
- Cell Vitality Percentage After Exposure ([2]; Table 5 explant, 0.1x): 60%
- Cell Vitality Percentage After Exposure ([2]; Table 5 explant, 1x): 21%
- Cell Vitality Percentage After Exposure ([2]; Table 5 explant, 10x): 18%
- most active medicaments (cases out of 5) [3]: 2/5

Compound: CN(Cc1cnc2nc(N)nc(N)c2n1)c1ccc(C(=O)N[C@@H](CCC(=O)O)C(=O)O)cc1 [MTX, methotrexate]
- Cell Vitality Percentage After Exposure [1, 4]: 13.5%
- Cell Vitality Percentage After Exposure [1, 5]: 5%
- Cell Vitality Percentage After Exposure [1, 6]: 3.9%
- Cell Vitality Percentage After Exposure ([2]; Table 4 explant, 0.1x): 18%
- Cell Vitality Percentage After Exposure ([2]; Table 4 explant, 1x): 4%
- Cell Vitality Percentage After Exposure ([2]; Table 4 explant, 10x): 3.1%
- most active medicaments (cases out of 5) [3]: 2/5

Compound: CC[C@]1(O)C[C@H]2CN(CCc3c([nH]c4ccccc34)[C@@](C(=O)OC)(c3cc4c(cc3OC)N(C=O)[C@H]3[C@@](O)(C(=O)OC)[C@H](OC(C)=O)[C@]5(CC)C=CCN6CC[C@]43[C@@H]65)C2)C1 [VCR, vincristine]
- Cell Vitality Percentage After Exposure [1, 4]: 7.8%
- Cell Vitality Percentage After Exposure [1, 5]: 4.6%
- Cell Vitality Percentage After Exposure [1, 6]: 3.8%
- Cell Vitality Percentage After Exposure ([2]; Table 2 explant, 0.1x): 70%
- Cell Vitality Percentage After Exposure ([2]; Table 2 explant, 1x): 45%
- Cell Vitality Percentage After Exposure ([2]; Table 2 explant, 10x): 11%
- Cell Vitality Percentage After Exposure ([2]; Table 3 explant, 0.1x): 32%
- Cell Vitality Percentage After Exposure ([2]; Table 3 explant, 1x): 19%
- Cell Vitality Percentage After Exposure ([2]; Table 3 explant, 10x): 4.8%
- Cell Vitality Percentage After Exposure ([2]; Table 4 explant, 0.1x): 1.9%
- Cell Vitality Percentage After Exposure ([2]; Table 4 explant, 1x): 1.3%
- Cell Vitality Percentage After Exposure ([2]; Table 4 explant, 10x): 1.3%
- Cell Vitality Percentage After Exposure ([2]; Table 5 explant, 0.1x): 23%
- Cell Vitality Percentage After Exposure ([2]; Table 5 explant, 1x): 4.2%
- Cell Vitality Percentage After Exposure ([2]; Table 5 explant, 10x): 2%
- most active medicaments (cases out of 5) [3]: 4/5

Compound: Bleomycin [BLM]
- Cell Vitality Percentage After Exposure ([2]; Table 2 explant, 0.1x): 55%
- Cell Vitality Percentage After Exposure ([2]; Table 2 explant, 1x): 36%
- Cell Vitality Percentage After Exposure ([2]; Table 2 explant, 10x): 17%
- Cell Vitality Percentage After Exposure ([2]; Table 3 explant, 0.1x): 81%
- Cell Vitality Percentage After Exposure ([2]; Table 3 explant, 1x): 68%
- Cell Vitality Percentage After Exposure ([2]; Table 3 explant, 10x): 34%
- Cell Vitality Percentage After Exposure ([2]; Table 4 explant, 0.1x): 82%
- Cell Vitality Percentage After Exposure ([2]; Table 4 explant, 1x): 79%
- Cell Vitality Percentage After Exposure ([2]; Table 4 explant, 10x): 62%
- Cell Vitality Percentage After Exposure ([2]; Table 5 explant, 0.1x): 60%
- Cell Vitality Percentage After Exposure ([2]; Table 5 explant, 1x): 35%
- Cell Vitality Percentage After Exposure ([2]; Table 5 explant, 10x): 31%
